Where two headings read alike, the source gives them in different places.

Test [1] has as its system HepG2 human liver cancer cell line. Briefly: Functional Mitochondrial Toxicity Assay, XFe96 Seahorse (HepG2). Conditions: HepG2. It is filed as cell-based. The procedure:
(§1) The present Examples interrogate the two major energy producing pathways in the cell, mitochondrial respiration and glycolysis. HepG2 human liver cancer cell lines were dosed with test compounds and in real time the extracellular oxygen levels and pH were measured using the XFe96 flux analyser (Seahorse Biosciences). XFe Technology uses solid-state sensors to simultaneously measure both oxygen consumption rate (OCR) and extracellular acidification rate (ECAR) to determine effects on oxidative phosphorylation (OXPHOS) and glycolysis simultaneously. The cells were then subjected to sequential exposure to various inhibitors of mitochondrial functional to assess cellular metabolism.
(§2) A positive mitochondrial active compound is determined when there is a change in OCR or ECAR in the absence of cytotoxicity. Cytotoxicity was determined when both oxidative phosphorylation (OCR) and glycolysis (ECAR) were inhibited.
(§3) OCR is a measurement of oxygen content in extracellular media. Changes in OCR indicate effects on mitochondrial function, and can be bi-directional. A decrease is due to an inhibition of mitochondrial respiration, whilst an increase may indicate an uncoupler, in which respiration is not linked to energy production.
(§4) ECAR is the measurement of extracellular proton concentration (pH). An increase in signal means an increase in rate in number of pH ions (Thus decreasing pH value), and seen as an increase in glycolysis. Expressed as a fraction of basal control (rate prior to addition of compound).
(§5) Reverse capacity is the measured ability of cells to respond to an increase in energy demand, a reduction indicates mitochondrial dysfunction.
(§6) The Mitochondrial Stress Test is a series of sequential additions of compounds to the cells to assess a bioenergetics profile, and effects of test compounds on parameters such as proton leak and research capacity. This was used to assist in understanding potential mechanisms of mitochondrial toxicity. For example, it involves the addition of the follow compounds in this order:
Oligomycin is a known inhibitor of ATP synthase, and prevents the formation of ATP. This provides a measurement of the amount of oxygen consumption related to ATP production and ATP turnover. The addition of Oligomycin results in a decrease in OCR under normal conditions, and residual OCR is related to the natural proton leak.
Carbonyl cyanide 4-(trifluoromethoxy)phenylhydrazine (FCCP) is a protonphore, and is a known uncoupler of oxygen consumption from ATP production. This allows the maximum achievable transfer of electrons and oxygen consumption rate, and provides a measurement of reserve capacity.
Rotenone and antimycin A are known inhibitors of complex I and III of the electron transport chain, respectively. This inhibits electron transport completely, and any residual oxygen consumption is due to non-mitochondrial activity via oxygen requiring enzymes.

For test [2], the system named is GM01299 propionic acidemia human cell line. The test can be described thus: Functional Mitochondrial Toxicity Assay (GM01299). The class given is cell-based. On the procedure:
as §1, §2, §3, §4, §5, §6
The present Example interrogates the two major energy producing pathways in the cell, mitochondrial respiration and glycolysis. A GM01299 propionic acidemia human cell line was dosed with test compound I-17 using the general protocol outlined in Example 2 above.

The subject of test [3] is GM05162 Duchenne muscular dystrophy human cell line. Briefly: Functional Mitochondrial Toxicity Assay (GM05162). It is filed as cell-based. The procedure: as §1, §2, §3, §4, §5, §6
The present Example interrogates the two major energy producing pathways in the cell, mitochondrial respiration and glycolysis. A GM05162 Duchenne muscular dystrophy human cell line was dosed with test compound I-17 using the general protocol outlined in Example 2 above.

The test system of test [4] is GM16548 Rett syndrome human cell line. The test can be described thus: Functional Mitochondrial Toxicity Assay (GM16548). It is filed as cell-based. On the procedure:
as §1, §2, §3, §4, §5, §6
The present Example interrogates the two major energy producing pathways in the cell, mitochondrial respiration and glycolysis. A GM16548 Rett syndrome human cell line was dosed with test compound I-39 using the general protocol outlined in Example 2 above.

Test [5] relates to GM01061 Huntington Disease human cell line. The test can be described thus: Functional Mitochondrial Toxicity Assay (GM01061). The class given is cell-based. The procedure: as §1, §2, §3, §4, §5, §6
The present Example interrogates the two major energy producing pathways in the cell, mitochondrial respiration and glycolysis. A GM01061 Huntington Disease human cell line was dosed with test compound I-39 using the general protocol outlined in Example 2 above.

The subject of test [6] is mitochondria. Conditions: US 2004/0248808, U.S. Pat. No. 7,718,620; cited from earlier work.
Test [7] deals with immortalized human trabecular meshwork (iHTM) cells. Conditions: Chen et al. 2011; cited from earlier work.
Test [8] deals with glaucomatous human trabecular meshwork (GTM3) cells. Conditions: Chen et al. 2011; cited from earlier work.
The conditions of test [9]: Szeto et al. 2013; cited from earlier work.
Test [10] concerns mitochondria. The settings on record: cited from earlier work.
Setting [11] is: read-out: Reserve Capacity AC50.

By AC50 is commonly meant the midpoint of the concentration-response curve, whichever way the signal moves. In the case of `O=C(O)CCC(=O)O` [Succinate], the “OCR MEC” value in test [1] was found to be 74.8 µM. Besides, the “OCR ↑↓” value in test [1] is “↑”. The “Potential Mechanism” value in [1] is “Uncoupler”; in [2], “Other”; in test [3], “Other”; in test [4], “Other”; in test [5] it was “No effect”. For the same molecule, the “Reserve Capacity MEC” value in test [1] was 62.5 µM; in [2], 38.2 µM; in test [4] it was 72.3 µM. Besides, the “Reserve Capacity ↑↓” value in test [1], in test [2] and in test [4] was “↑” in each case. Besides, the AC50 in test [1] (read-out: ECAR AC50), in test [1] (read-out: OCR AC50), in test [1] (setting [11]), in test [2] (read-out: ECAR AC50), in [2] (read-out: OCR AC50) and in [2] (setting [11]) was more than 100 µM each time. The AC50 was 2.91 µM in test [3] (read-out: ECAR AC50); more than 100 µM in [3] (setting [11]); more than 100 µM in test [4] (read-out: ECAR AC50); more than 100 µM in test [4] (read-out: OCR AC50); more than 100 µM in test [4] (setting [11]); more than 100 µM in test [5] (read-out: ECAR AC50). Moreover, in test [5] (setting [11]), the AC50 was more than 100 µM. Also, the “ECAR MEC” value in [3] was found to be 0.179 µM. Also, the “ECAR ↑↓” value in test [3] is “↑”.

For `CC(O)CC(=O)O` (stereo not drawn) [β-OHB], the “Potential Mechanism” value in test [1], in test [2], in test [3], in test [4] and in test [5] was “Other” throughout. For the same molecule, the “Reserve Capacity MEC” value in test [1] amounted to 53.0 µM; in test [2], 25.3 µM; in test [3], 1.15 µM; in [4] it was 23.1 µM; in [5], 81.1 µM. The “Reserve Capacity ↑↓” value in test [1], in test [2], in [3], in test [4] and in test [5] was “↑” throughout. Besides, the AC50 in test [1] (read-out: ECAR AC50), in [1] (read-out: OCR AC50), in [1] (setting [11]), in test [2] (read-out: ECAR AC50), in [2] (read-out: OCR AC50) and in test [2] (setting [11]) was more than 100 µM in each case. Further, the concentration at half-maximal activity (AC50) in test [3] (read-out: ECAR AC50) was more than 100 µM; in test [3] (setting [11]), 69.5 µM; in test [4] (read-out: ECAR AC50) it was more than 100 µM; in test [4] (setting [11]), 72.2 µM; in test [5] (read-out: ECAR AC50) it was more than 100 µM; in test [5] (read-out: OCR AC50) it was more than 100 µM. Besides, in test [5] (setting [11]), the AC50 was more than 100 µM. Further, in [2], the “ECAR MEC” value is 89.8 µM. Further, the “ECAR ↑↓” value in test [2] was “↓”.

Consider “(D-Arg)(L-Dmt)(L-Lys)(L-Phe)-NH2 [Peptide I-1, reference compound]”, for which the “ECAR ↑↓” value in test [1] is “↓”. The “Reserve Capacity ↑↓” value in test [1] is “↑”. In addition, the “Potential Mechanism” value in test [1] (listed as I-1 (1)) is on record as “No effect”; in [1] (listed as I-1 (2)) it was “Other”. Besides, the AC50 is more than 100 µM in test [1] (listed as I-1 (1), read-out: ECAR AC50); more than 100 µM in [1] (listed as I-1 (1), read-out: Reserve Capacity AC50); more than 100 µM in test [1] (listed as I-1 (2), read-out: ECAR AC50); more than 100 µM in test [1] (listed as I-1 (2), read-out: Reserve Capacity AC50); more than 100 µM in test [1] (read-out: OCR AC50). Also, the “ECAR MEC” value in [1] (listed as I-1 (2)) stood at 14.3 µM. Besides, in test [1] (listed as I-1 (2)), the “Reserve Capacity MEC” value was found to be 90.3 µM. Moreover, the “number of mitochondria undergoing MPT” value with mitochondria [6] is recorded as “significantly reduce”. The “sustained oxidative stress induced by H2O2” value in [7] and in test [8] was “prevent” each time. Besides, the “binding to cardiolipin within the inner mitochondria membrane” value in test [9] is recorded as “binding to cardiolipin”. Further, in the test with mitochondria [10], the “reactive oxygen species (ROS) in the mitochondria” value was “reduces”.

As for “(D-Phe)(D-Orn)(D-Tyr)(D-Orn)-NH2 [Peptide I-39]”, the “ECAR ↑↓” value in test [1] is “↓”. Moreover, the “Potential Mechanism” value in test [1] is reported as “Other”; in [4], “Other”; in test [5] it was “No effect”. Moreover, the “Reserve Capacity ↑↓” value in test [1] and in [4] was “↑” each time. Besides, the “ECAR MEC” value is 30.1 µM in [1] (listed as I-39(1)), 15.3 µM in test [1] (listed as I-39(2)) and 21.2 µM in test [1] (listed as I-39(3)). In addition, the “Reserve Capacity MEC” value in [1] (listed as I-39(1)) is 92.4 µM; in test [1] (listed as I-39(2)), 67.6 µM; in test [1] (listed as I-39(3)), 77.3 µM; in test [4], 60.2 µM. Further, the AC50 in test [1] (read-out: ECAR AC50), in test [1] (read-out: OCR AC50), in test [1] (setting [11]), in test [4] (read-out: ECAR AC50), in test [4] (read-out: OCR AC50) and in test [4] (setting [11]) was more than 100 µM throughout. Further, the AC50 in test [5] (read-out: ECAR AC50) and in test [5] (setting [11]) was more than 100 µM each time.

Consider “(L-Phe)(L-Orn)(L-Dmt)(D-Arg)-NH2 [Peptide I-12]”, for which, in test [1], the “Potential Mechanism” value is “No effect”. Also, the AC50 in test [1] (read-out: ECAR AC50), in [1] (read-out: OCR AC50) and in [1] (setting [11]) was more than 100 µM each time.

Consider “(L-Phe)(L-Orn)(L-Dmt)(D-Orn)-NH2 [Peptide I-13]”, for which the “Potential Mechanism” value in [1] is given as “Other”. In addition, the results for the “Reserve Capacity MEC” value in test [1] (listed as I-13 (1)) and in test [1] (listed as I-13 (2)) were 13.4 µM and 0.167 µM, respectively. Besides, the entries for the “Reserve Capacity ↑↓” value in test [1] (listed as I-13 (1)) and in test [1] (listed as I-13 (2)) were “↑” and “↓”, respectively. In addition, the AC50 in [1] (listed as I-13 (1), read-out: Reserve Capacity AC50) was 81.9 µM; in [1] (listed as I-13 (2), read-out: Reserve Capacity AC50), 4.72 µM; in test [1] (read-out: ECAR AC50), more than 100 µM; in test [1] (read-out: OCR AC50) it was more than 100 µM.

With “(L-Phe)(L-Orn)(L-Leu)(D-Arg)-NH2 [Peptide I-30]”, the “Potential Mechanism” value in test [1] was “No effect”. For the same molecule, the AC50 in test [1] (read-out: ECAR AC50), in [1] (read-out: OCR AC50) and in test [1] (setting [11]) was more than 100 µM in each case.

As for “(L-Phe)(L-Orn)(L-Leu)(D-Orn)-NH2 [Peptide I-31]”, the “Potential Mechanism” value in test [1] is recorded as “No effect”. Moreover, the AC50 in test [1] (read-out: ECAR AC50), in test [1] (read-out: OCR AC50) and in [1] (setting [11]) was more than 100 µM in each case.

In the case of “(L-Phe)(L-Orn)(L-Phe)(D-Orn)-NH2 [Peptide I-33]”, the “Potential Mechanism” value in test [1] is “No effect”. Moreover, the AC50 in test [1] (read-out: ECAR AC50), in [1] (read-out: OCR AC50) and in [1] (setting [11]) was more than 100 µM in each case.

With “(L-Phe)(L-Orn)(L-Tyr)(D-Arg)-NH2 [Peptide I-14]”, the “Potential Mechanism” value in test [1] is on record as “No effect”. In addition, the AC50 in [1] (read-out: ECAR AC50), in test [1] (read-out: OCR AC50) and in [1] (setting [11]) was more than 100 µM in each case.

Consider “(L-Phe)(L-Orn)(L-Tyr)(D-Orn)-NH2 [Peptide I-15]”, for which, in test [1], the “Potential Mechanism” value is given as “Other”, the “Reserve Capacity MEC” value was 64.7 µM and the “Reserve Capacity ↑↓” value was “↑”. For the same molecule, the AC50 in test [1] (read-out: ECAR AC50) is more than 100 µM. For the same molecule, in test [1] (read-out: OCR AC50), the AC50 is more than 100 µM. Besides, the AC50 in test [1] (setting [11]) is more than 100 µM.

(Values after patent US10870678B2, “Chiral peptides” (ARCUATE THERAPEUTICS, INC., priority 2016, dated 2020).)
